According to ChEMBL document CHEMBL4007504, “Docking, synthesis and antimalarial activity of novel 4-anilinoquinoline derivatives” (Bioorg Med Chem Lett, 2017):

Experiments:
Mus musculus = test: Toxicity in Swiss albino mouse at 2000 mg/kg, po; type: organism-based; conditions: in vivo
Ferriprotoporphyrin IX = test: Binding affinity to haematin assessed as inhibition of NP40-mediated beta-haematin formation after 4 hrs by pyridine-ferrochrome method
Plasmodium berghei = test: Antimalarial activity against chloroquine-sensitive Plasmodium berghei infected in Swiss albino mouse assessed as chemosuppression at 200 mg/kg, po qd administered for 4 days by peter's test relative to control; type: functional; conditions: 96 h
Plasmodium falciparum = test: Antimalarial activity against chloroquine-resistant Plasmodium falciparum W2 infected in human erythrocytes assessed as parasite growth inhibition after 48 hrs by YOYO1 probe-based flow cytometric method; type: functional, cell-based; conditions: W2, 48 h

Row | SMILES | Activity (Mus musculus) | IC50 (Ferriprotoporphyrin IX) | inhibition in vivo at 200 mg/kg (Plasmodium berghei) | IC50 (Plasmodium falciparum)
1 | Clc1ccc2c(Nc3ccc(Nc4nc(Cl)nc(N(c5ccccc5)c5ccccc5)n4)cc3)ccnc2c1 | Non-Toxic | 24900 nM | 97.4% | 255 nM
2 | CN(C)c1nc(Cl)nc(Nc2ccc(Nc3ccnc4cc(Cl)ccc34)cc2)n1 | Non-Toxic | 29700 nM | 95.2% | 380 nM
3 | CN(c1ccccc1)c1nc(Cl)nc(Nc2ccc(Nc3ccnc4cc(Cl)ccc34)cc2)n1 | Non-Toxic | 23700 nM | 91.1% | 269 nM
4 | Clc1ccc2c(Nc3ccc(Nc4nc(Cl)nc(N5CCNCC5)n4)cc3)ccnc2c1 | Non-Toxic | 23700 nM | 94.8% | 167 nM
5 | C[C@@H]1CC[C@H]2[C@@H](C)C(=O)O[C@@H]3O[C@@]4(C)CC[C@@H]1[C@]32OO4 [ARTEMISININ] | – | – | – | 15 nM
6 | Clc1ccc2c(Nc3ccc(Nc4nc(Cl)nc(N5CCOCC5)n4)cc3)ccnc2c1 | Non-Toxic | 21100 nM | 97% | 138 nM
7 | CCN(CC)c1nc(Cl)nc(Nc2ccc(Nc3ccnc4cc(Cl)ccc34)cc2)n1 | Non-Toxic | 21600 nM | 95.5% | 268 nM
8 | Nc1ccc(Nc2ccnc3cc(Cl)ccc23)cc1 | Non-Toxic | 32500 nM | 85.9% | 807 nM
9 | CCN(CC)CCCC(C)Nc1ccnc2cc(Cl)ccc12 (stereo not drawn) [CHLOROQUINE] | – | 27200 nM | 83% | –
10 | COc1ccccc1Nc1nc(Cl)nc(Nc2ccc(Nc3ccnc4cc(Cl)ccc34)cc2)n1 | Non-Toxic | 21000 nM | 94.8% | 145 nM
11 | O=[N+]([O-])c1ccc(Nc2nc(Cl)nc(Nc3ccc(Nc4ccnc5cc(Cl)ccc45)cc3)n2)cc1 | Non-Toxic | 23000 nM | 97.4% | 145 nM
12 | CCN(c1ccccc1)c1nc(Cl)nc(Nc2ccc(Nc3ccnc4cc(Cl)ccc34)cc2)n1 | Non-Toxic | 29200 nM | 97% | 220 nM
13 | CCCN(CCC)c1nc(Cl)nc(Nc2ccc(Nc3ccnc4cc(Cl)ccc34)cc2)n1 | Non-Toxic | 18600 nM | 91.5% | 8 nM
14 | Clc1ccc2c(Nc3ccc(Nc4nc(Cl)nc(N5CCCC5)n4)cc3)ccnc2c1 | Non-Toxic | 28100 nM | 97% | 119 nM
15 | Clc1ccc2c(Nc3ccc(Nc4nc(Cl)nc(N5CCCCC5)n4)cc3)ccnc2c1 | Non-Toxic | 20600 nM | 94.1% | 118 nM
16 | Clc1ccc2c(Nc3ccc(Nc4nc(Cl)nc(NCc5ccccc5)n4)cc3)ccnc2c1 | Non-Toxic | 21800 nM | 97% | 123 nM
17 | CC(C)N(c1nc(Cl)nc(Nc2ccc(Nc3ccnc4cc(Cl)ccc34)cc2)n1)C(C)C | Non-Toxic | > 500000 nM | 95.5% | 902 nM
